Consider 2 compounds from US8093395B2 (priority 2007, dated 2012).

Where two headings read alike, the source gives them in different places.

Holding throughout (experiment): biochemical
Common to all, as to type: biochemical
Conditions in all cases: for activity at 1 µM: pH 5.5, read-out: Sphingomyelinase Activity (%)

The target of experiment [1] is T1, Bacillus cereus-SMase (Bacillus cereus, UniProt P11889). As for the experimental part:
Experiment 3: Influence of Compound (1a) and Compound (1b) on the ^14C-Sphingomyelin (^14C-Sphingomyelin) Decomposition Activity of Bacillus cereus-SMase
(§1) (i) Solution of Compound (1a)
(§2) Compound (1a) was dissolved in MeOH and adjusted to 1.7 mM and 17 mM.
(§3) (ii) Solution of Compound (1b)
(§4) Compound (1b) was dissolved in MeOH and adjusted to 1.7 mM and 17 mM.
(iii) Preparation of TX-Buffer
0.5 g of Triton X-100 was dissolved in 100 ml of 0.02 M TB.
[Method] 30 ng/ml Bacillus cereus-SMase was mixed with the solution of Compound (1a) with each concentration or the solution of Compound (1b) with each concentration, and the mixture was adjusted with TX-buffer (pH 5.5) to a total volume of 200 μl and pre-treated for 10 minutes at 37° C., after which 10 μl of ^14C-sphingomyelin was added to the reaction mixture, and the resulting mixture was incubated for 30 minutes at 37° C. 600 μl of a solvent to stop the reaction (stop solution; CHCl3:MeOH=1:2) was added to the reaction mixture and the resulting mixture was stirred for 30 seconds twice, and centrifuged for 20 minutes at 2,000 rpm, after which the upper layer was measured using a liquid scintillation counter.

The target of experiment [2] is T1, Bacillus cereus-SMase. The source holds these as a separate data set.
Experiment [3] addresses T1, Bacillus cereus-SMase. As for the experimental part:
Preparation of Sphingomyelin-Liposome (SM-Liposome)
The sphingomyelin (SM), cholesterol, and CF solution used were as follows:
SM: sphingomyelin from bovin brain, code: 32156-74
Cholesterol: Nakarai code: 08721-75
CF solution: 5(6)-carbosyfluorescein; SIGMA C8166, FW=460.4
About 100 μl of 1 N sodium hydroxide (NaOH) was added to CF (27 mg/3 ml, DW) to prepare a CF solution. At this time, NaOH was added to give a pH of 7 to 8 as measured by a pH test paper.
Liposome Preparation Method
59 μl of a solution obtained by dissolving 2 mg of sphingomyelin (SM) in 160 μl of a mixed solvent of chloroform (CHCl3) and methanol (MeOH) (CHCl3:MeOH=2:1) was mixed with 20 μl of a solution obtained by dissolving 19.3 mg of cholesterol in 1 ml of CHCl3; the mixture was homogeneously spread to the bottom of a glass test tube while the CHCl3 and MeOH were distilled under nitrogen, and dried in a desiccator for 30 minutes. The CF solution was warmed to 55° C., and 80 μl of the CF solution was added with stirring to the SM from which the solvent was distilled (the molar ratio of […]: 1:1), and a procedure of placing the mixture in a water bath at 55° C. and stirring the mixture was repeated three times at 30-second intervals. A suitable amount of TBS was added, the mixture was centrifuged for 20 minutes at 15,000 rpm and 4° C., and the supernatant was removed. A suspension of the resulting product in 300 μl of TBS was used as a liposome.
Experiment 2: Influence of Compound (1a) and Compound (1b) on SM-Liposome Degradation Activity of Bacillus cereus-SMase
as §1, §2, §3, §4
[Method] Bc-SMase (50 ng/ml) was mixed with the solution of Compound (1a) with each concentration or the solution of Compound (1b) with each concentration, and the mixture was adjusted with GTBS (pH 5.5) to a total volume of 180 μl and pre-treated for 10 minutes at 37° C., after which 20 μl of the SM-liposome was added to the resulting reaction mixture and incubated for 30 minutes at 37° C. The reaction mixture was measured using a fluorometer (Corona Electric Co., Ltd.; MTP32 Microplate Reader, Ex490, Em530).
This is another data set of the same source.

T1 sequence (P11889 28-333): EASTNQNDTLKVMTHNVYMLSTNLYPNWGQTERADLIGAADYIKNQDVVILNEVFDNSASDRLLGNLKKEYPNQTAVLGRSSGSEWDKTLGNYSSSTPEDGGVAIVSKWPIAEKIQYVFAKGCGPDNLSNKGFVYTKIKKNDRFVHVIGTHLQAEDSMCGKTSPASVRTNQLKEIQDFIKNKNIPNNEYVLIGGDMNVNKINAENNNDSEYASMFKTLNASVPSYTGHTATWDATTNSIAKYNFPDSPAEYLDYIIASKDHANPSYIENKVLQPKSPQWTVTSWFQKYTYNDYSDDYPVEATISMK

`CCCCCCCCCCCCC/C=C/[C@@H](OCc1cccc(-c2ccccn2)n1)C(CO)NC(=O)CCCCC` (stereo partly drawn) [Compound (1b)]: the “inhibitory effect compared with Compound (1a)” value on Bacillus cereus-SMase [1] (1 to 100 μM, 14C-sphingomyelin decomposition) is reported as “did not show as potent an inhibitory effect as Compound (1a)”; on Bacillus cereus-SMase [2] (1 to 100 μM, sheep erythrocyte hemolysis) it was “did not show as potent an inhibitory effect as Compound (1a)”; on Bacillus cereus-SMase [3] (1 to 100 μM, SM-liposome degradation) it was “did not show as potent an inhibitory effect as Compound (1a)”. Further, the activity at 1 µM on Bacillus cereus-SMase [1] is 98.2 ± 2.3%; on Bacillus cereus-SMase [2], 96.2 ± 2.7%; on Bacillus cereus-SMase [3], 99.1 ± 0.3%.

Regarding `CCCCCCCCCCCCC/C=C/[C@@H](O)C(COCc1cccc(-c2ccccn2)n1)NC(=O)CCCCC` (stereo partly drawn) [Compound (1a)], at Bacillus cereus-SMase [1] (100-μM solution, 14C-sphingomyelin decomposition), the “sphingomyelinase activity was inhibited by (Table 3)” value is “about 25%”. For the same compound, the activity at 1 µM on Bacillus cereus-SMase [1] came to 98.6 ± 1.3%; on Bacillus cereus-SMase [2], 98.2 ± 1.4%; at Bacillus cereus-SMase [3], 99 ± 0.2%. In addition, the “sphingomyelinase activity was inhibited by (text summary of Table 1)” value at Bacillus cereus-SMase [2] (100-μM solution, sheep erythrocyte hemolysis) is on record as “about 30%”. The “inhibition of sphingomyelinase activity (text summary of Table 2)” value against Bacillus cereus-SMase [3] (100-μM solution, SM-liposome degradation) is on record as “substantially completely inhibited”.
